# Experiments:
# [1] = stability toward air: neutralization of the salt by CO2 and water to neutral Cel (Cel-III); type: physicochemical
# Source text: The behavior was first observed when using compressed air instead of nitrogen in the dynamic vapor sorption experiment, but it was also clear in samples stored open in controlled humidity chambers. The neutralization was minimized to get clean PXRD patterns by including small vials of concentrated NaOH solution within the closed humidity chambers to remove CO2 from the air. […] Throughout the conversion, both Cel-III and the sodium salt are clearly observed by PXRD with Cel-III growing slowly over time.
# [2] = storage in controlled humidity chambers monitored by PXRD (physical form stability); type: physicochemical
# Source text: Indeed, understanding the behavior of the salt form before the single crystal structure was solved was challenging in that the powder patterns seemed to change almost daily, even when powders were equilibrated in humidity chambers prior to measurement. […] Consistent powder patterns were obtained by two distinct methods. In the first method, powder was filled into 0.5 mm capillary tubes, equilibrated in controlled humidity chambers for 1 week, sealed with silicone grease immediately upon removal from the humidity chambers, and measured immediately with a transmission powder X-ray diffractometer. In the second, a sample was monitored by a reflectance mode powder X-ray diffractometer fitted with a controlled humidity stage. The two methods were complimentary. The capillary method provided high resolution patterns without preferred orientation effects. However, the humidity control was coarse and was limited to conditions that could be achieved with standard saturated salt solutions.
# The rate of conversion to Cel-NaPG(H2O)3 is very slow at 18% RH and increases to the point where conversion takes less than one day at 54% RH or higher.
# [3] = Dynamic Vapor Sorption (DVS) moisture sorption analysis; type: physicochemical
# Protocol: Moisture sorption analysis was performed using a Dynamic Vapor Sorption apparatus (Surface Measurement Systems, Monarch Beach, Calif.). Each sample was placed in a clean glass crucible and equilibrated in the apparatus at a specified RH level. Varying the flow rates of dry nitrogen gas and saturated wet nitrogen gas streams controlled RH; the total combined flow rate was kept constant at 200 standard […] per minute. After initial equilibration, RH was varied and change in mass was recorded over time as an indication of moisture sorption. Mass equilibration at each humidity level was determined as a change in mass less than ±2×10^−5 grams over a time interval of 1 minute (dm/dt of 0.002% min). After the assay, the change in mass was mathematically converted to water molar equivalents per dry compound molar equivalent.
# The dynamic vapor sorption profiles were measured starting with Cel-NaPG at 0% RH, and for Cel-NaPG(H2O)3 beginning at 20% RH to avoid dehydrating it prior to the first absorption cycle. The profiles are shown in FIG. 12 alongside PXRD patterns for samples of Cel-NaPG stored in controlled humidity chambers for 1-2 days.
# [4] = 1H NMR determination of Cel:PG ratio after exposure to 0% RH and 40% RH in the DVS; type: physicochemical
# Protocol: ^1H NMR measurements were conducted using a Varian 400 MHz spectrometer with averaging of 128 scans. Samples were prepared as 10 mg/ml solutions of Cel in CDCl3.
# Increased lability and loss of PG during the transition from anhydrous to trihydrate was believed to be the most likely explanation for the weight loss. ^1H NMR was used to determine whether the PG solvate is lost continuously throughout the humidity cycle or only during change in the hydration state. Cel-NaPG and Cel-NaPG(H2O)3 were exposed to 0% RH and 40% RH in the DVS and then dissolved in methanol-d4 for NMR analysis. The Cel:PG ratio was stable at 1/1 for Cel-NaPG(H2O)3 after treatment for either four hours at 40% RH or 18 hours at 0% RH. […] Since the Cel-NaPG(H2O)3 has a wide range of physical stability, conversion from the trihydrate to the anhydrous and then back to the trihydrate should be a rare event. In a closed system such as a packaged tablet, PG should not be lost as easily as it is in the dynamic environment of the DVS where gases continuously flow over the sample to carry away any volatile components.
# [5] = TGA; type: physicochemical
# [6] = cited from earlier work
# [7] = physchem; settings: aqueous sodium hydroxide solution, pH 12, aqueous buffer
compound,measurement,setting,value
Cc1ccc(-c2cc(C(F)(F)F)nn2-c2ccc(S(N)(=O)=O)cc2)cc1 [Cel-Na(H2O)x],physical stability in a sealed vial,[1]; sealed vial,physically stable
"CC(O)CO.Cc1ccc(-c2cc(C(F)(F)F)nn2-c2ccc(S([NH-])(=O)=O)cc2)cc1.O.O.O.[Na+] [Cel-NaPG(H2O)3, propylene glycol solvate of celecoxib sodium trihydrate]",reaction with CO2 and water in the air,[1],resistant to reaction with CO2 and water in the air
same,conversion to neutral Cel,[1]; after 4 days at 45 66% RH,no conversion was observed
same,conversion to Cel-NaPG (dehydration),[2]; 4 days of storage over the 18% RH salt bath,no conversion to Cel-NaPG
same,reversible weight gain,[3]; between 10 and 70% RH at 25° C.,1.2 % weight
same,loss of dry weight after a single humidity cycle,"[3]; started at 20% RH, single humidity cycle",no loss was seen
CC(O)CO.Cc1ccc(-c2cc(C(F)(F)F)nn2-c2ccc(S([NH-])(=O)=O)cc2)cc1.[Na+] [Cel-NaPG],PG lost,[4]; over four hours at 40% RH,8.2%
same,stability of PG content,[4]; stream of dry nitrogen for 18 hours (0% RH),remaining stable
same,time for conversion to Cel-NaPG(H2O)3,[2]; 54% RH or higher,less than one
same,additional weight loss after going through the entire DVS profile,"[3]; 25° C., after desorption",2 % weight
same,weight gain during adsorption,"[3]; DVS profile started at 0% RH, 25° C.",~14 % weight
same,temperature until which PG is retained (TGA),[5]; under a flow of nitrogen,approximately 80 °C
same,water gained (TGA),"[5]; within 1 day, stored in a 38% RH chamber",about 2 equiv
Cc1ccc(-c2cc(C(F)(F)F)nn2-c2ccc(S(N)(=O)=O)cc2)cc1 [celecoxib],aqueous solubility of celecoxib at physiological pH,[6],< 0.5 μg/ml
same,solubility,[7],≥ 380 mg/mL

# Source: patent US8410287B2 (McNeil-PPC, Inc., priority 2010, dated 2013)
